# Experiments:
# PD-L1 = biological target: T1, PD-L1 (Homo sapiens, UniProt Q9NZQ7); experiment: PD-L1/PD-L1 dimerization biochemical protein-protein interaction assay (ALPHA); assay type: binding; settings: compound-induced PD-L1 dimerization, head prints '1 nM' (0.5 nM His-tagged PD-L1 and 0.5 nM FLAG-tagged PD-L1), read-out: AC50 PDL1 Dimer Alpha 1 nM
# T1 construct: determine if they can specifically dimerize the extracellular domains of PD-L1
# How it was run: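 ALPHA proximity assay of compound-induced dimerization of 0.5 nM His-tagged and 0.5 nM FLAG-tagged PD-L1 extracellular domains in Hepes pH 7.4 buffer, 2 h at 25 °C. Anti-His acceptor then anti-FLAG donor beads, 60 min each; AC50 from four-parameter fit.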
# PD-1/PD-L1 interaction = biological target: T2, PD-1/PD-L1 interaction (Homo sapiens, UniProt Q9NZQ7); experiment: PD-1/PD-L1 NFAT reporter co-culture assay; assay type: cell-based; settings: Jurkat PD-1 NFAT-luciferase cells co-cultured with aAPC-PD-L1 CHO cells, 6 hrs at 37° C.; read-out: EC50 NFAT Luciferase
# T2 construct: expressed in transfected cells; host or cells: CHO cells (aAPC-PD-L1) co-cultured with Jurkat cells overexpressing PD-1 and an NFAT-luciferase reporter
# T2 sequence (Q9NZQ7 19-290): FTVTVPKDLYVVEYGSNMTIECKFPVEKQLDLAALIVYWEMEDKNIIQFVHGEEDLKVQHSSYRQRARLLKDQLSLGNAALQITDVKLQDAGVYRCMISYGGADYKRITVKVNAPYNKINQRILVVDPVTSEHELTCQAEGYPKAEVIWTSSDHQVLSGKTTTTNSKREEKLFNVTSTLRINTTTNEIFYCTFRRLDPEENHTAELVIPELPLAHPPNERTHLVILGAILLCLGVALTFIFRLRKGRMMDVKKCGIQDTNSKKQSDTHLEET
# How it was run: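 Restoration of TCR-driven NFAT luciferase signal: 6 h, 37 °C co-culture of PD-1 Jurkat reporter cells (pre-mixed with compound) on overnight-seeded PD-L1/anti-CD3 CHO monolayer. ONE-Glo luminescence; dose-response fitted to four-parameter equation for EC50.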
# PD-1/PD-L1 = PD-1/PD-L1 (Homo sapiens, UniProt Q9NZQ7); experiment: PD-1/PD-L1 biochemical protein-protein interaction assay (ALPHA); assay type: binding; settings: 0.3 nM His tagged PD-L1, 2.5 nM biotinylated Fc-PD-1, 60 minutes at 25° C., read-out: IC50 PD-L1-PD-1 Alpha IC50-mono PD-L1-fcP-D1
# Chain of PD-1/PD-L1 (Q9NZQ7 19-238 limits assumed): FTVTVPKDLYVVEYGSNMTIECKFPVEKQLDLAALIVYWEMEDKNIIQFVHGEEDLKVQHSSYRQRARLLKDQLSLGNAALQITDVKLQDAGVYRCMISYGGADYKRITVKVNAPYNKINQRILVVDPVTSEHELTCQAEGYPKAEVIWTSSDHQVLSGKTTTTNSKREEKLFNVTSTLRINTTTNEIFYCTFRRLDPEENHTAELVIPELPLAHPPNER
# How it was run: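 Compounds are tested for blocking the PD-1/PD-L1 extracellular-domain interaction using an ALPHA bead assay, in which inhibition lowers the luminescent signal. Reactions run 60 min at 25° C with 0.3 nM His-PD-L1 and 2.5 nM biotinylated Fc-PD-1. IC50 values come from four-parameter fits.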
# T1 sequence (Q9NZQ7 19-238 limits assumed): as above
# T1 sequence (Q9NZQ7 19-238 limits assumed): as above
AC50 (PD-L1),EC50 (PD-1/PD-L1 interaction),IC50 (PD-1/PD-L1),Structure (SMILES)
209 nM,1640 nM,0.188 nM,"Cc1c(COc2cc(OCc3cncc(C#N)c3)c(CNC[C@@H](O)CC(=O)O)cc2Cl)cccc1-c1cccc(-c2cn(C3CCNCC3)nn2)c1C [Example 330, (S)-4-((5-chloro-2-((5-cyanopyridin-3-yl)methoxy)-4-((2,2′-dimethyl-3′-(1-(piperidin-4-yl)-1H-1,2,3-triazol-4-yl)-[1,1′-biphenyl]-3-yl)methoxy)benzyl)amino)-3-hydroxybutanoic acid]"
18.7 nM,47 nM,0.114 nM,"C[C@@](CO)(NCc1cc(Cl)c(O[C@H]2CCc3c(-c4cccc(-c5ccc(OCCNCCO)cc5)c4Cl)cccc32)nc1OCc1cc(C#N)cc(C#N)c1)C(=O)O [Example 332, (S)-2-(((5-chloro-6-(((S)-4-(2-chloro-4′-(2-((2-hydroxyethyl)amino)ethoxy)-[1,1′-biphenyl]-3-yl)-2,3-dihydro-1H-inden-1-yl)oxy)-2-((3,5-dicyanobenzyl)oxy)pyridin-3-yl)methyl)amino)-3-hydroxy-2-methylpropanoic acid]"
203 nM,481 nM,0.289 nM,"Cc1c(COc2cc(OCc3cncc(C#N)c3)c(CN3CC[C@@H](O)C3)cc2Cl)cccc1-c1cccc(-c2ccc(CNCCCCC(=O)O)cc2)c1C [Example 333, (R)-5-(((3″-((2-chloro-5-((5-cyanopyridin-3-yl)methoxy)-4-((3-hydroxypyrrolidin-1-yl)methyl)phenoxy)methyl)-2′,2″-dimethyl-[1,1′:3′,1″-terphenyl]-4-yl)methyl)amino)pentanoic acid]"
231 nM,437 nM,0.414 nM,"Cc1c(COc2cc(OCc3cncc(C#N)c3)c(CNC[C@@H](O)CC(=O)O)cc2Cl)cccc1-c1cccc(-c2ccc(CN3CC[C@H](O)C3)cc2)c1C [Example 335, (S)-4-((5-chloro-2-((5-cyanopyridin-3-yl)methoxy)-4-((4″-(((S)-3-hydroxypyrrolidin-1-yl)methyl)-2,2′-dimethyl-[1,1′:3′,1″-terphenyl]-3-yl)methoxy)benzyl)amino)-3-hydroxybutanoic acid]"
109 nM,398 nM,0.124 nM,"Cc1c(COc2cc(OCc3cncc(C#N)c3)c(CN[C@@](C)(CO)C(=O)O)cc2Cl)cccc1-c1cccc(-c2ccc(CN3CC[C@H](O)C3)cc2)c1C [Example 336, (S)-2-((5-chloro-2-((5-cyanopyridin-3-yl)methoxy)-4-((4″-(((S)-3-hydroxypyrrolidin-1-yl)methyl)-2,2′-dimethyl-[1,1′:3′,1″-terphenyl]-3-yl)methoxy)benzyl)amino)-3-hydroxy-2-methylpropanoic acid]"
140 nM,1060 nM,0.179 nM,"Cc1c(COc2cc(OCc3cncc(C#N)c3)c(CN[C@H]3CC[C@@H](C(=O)O)C3)cc2Cl)cccc1-c1cccc(-c2ccc(OCCNCCO)cc2)c1C [Example 338, (1R,3S)-3-((5-chloro-2-((5-cyanopyridin-3-yl)methoxy)-4-((4″-(2-((2-hydroxyethyl)amino)ethoxy)-2,2′-dimethyl-[1,1′:3′,1″-terphenyl]-3-yl)methoxy)benzyl)amino)cyclopentane-1-carboxylic acid]"
38.3 nM,284 nM,0.064 nM,"Cc1c(COc2cc(OCc3cncc(C#N)c3)c(CNC[C@@H](O)CC(=O)O)cc2Cl)cccc1-c1cccc(-c2ccc(OCCNC[C@@H](O)CC(=O)O)cc2)c1Cl [Example 341, (S)-4-((4-((4″-(2-(((S)-3-carboxy-2-hydroxypropyl)amino)ethoxy)-2′-chloro-2-methyl-[1,1′:3′,1″-terphenyl]-3-yl)methoxy)-5-chloro-2-((5-cyanopyridin-3-yl)methoxy)benzyl)amino)-3-hydroxybutanoic acid]"

# Second part, the compound before the results:
Structure (SMILES),AC50 (PD-L1),EC50 (PD-1/PD-L1 interaction),IC50 (PD-1/PD-L1)
"Cc1c(COc2cc(OCc3cncc(C#N)c3)c(CNC[C@@H](O)CC(=O)O)cc2Cl)cccc1-c1cccc(-c2ccc(CNCc3cncc(C#N)c3)cc2)c1C [Example 326, (S)-4-((5-chloro-2-((5-cyanopyridin-3-yl)methoxy)-4-((4″-((((5-cyanopyridin-3-yl)methyl)amino)methyl)-2,2′-dimethyl-[1,1′:3′,1″-terphenyl]-3-yl)methoxy)benzyl)amino)-3-hydroxybutanoic acid]",1210 nM,439 nM,1.15 nM
"Cc1c(COc2nc(OC[C@@H]3CCC(=O)N3)c(CNC[C@@H](O)CC(=O)O)cc2Br)cccc1-c1cccc(COc2nc(OC[C@@H]3CCC(=O)N3)c(CNC[C@@H](O)CC(=O)O)cc2Br)c1C [Example 328, (3S,3′S)-4,4′-((((((2,2′-dimethyl-[1,1′-biphenyl]-3,3′-diyl)bis(methylene))bis(oxy))bis(5-bromo-2-(((S)-5-oxopyrrolidin-2-yl)methoxy)pyridine-6,3-diyl))bis(methylene))bis(azanediyl))bis(3-hydroxybutanoic acid)]",241 nM,146 nM,0.142 nM
"Cc1c(COc2cc(OCc3cncc(C#N)c3)c(CN[C@@](C)(CO)C(=O)O)cc2Cl)cccc1-c1cccc(-c2nnc(CCN)o2)c1C [Example 329, (S)-2-((4-((3′-(5-(2-aminoethyl)-1,3,4-oxadiazol-2-yl)-2,2′-dimethyl-[1,1′-biphenyl]-3-yl)methoxy)-5-chloro-2-((5-cyanopyridin-3-yl)methoxy)benzyl)amino)-3-hydroxy-2-methylpropanoic acid]",290 nM,466 nM,0.284 nM
Cc1c(COc2cc(OCc3cncc(C#N)c3)c(CNC[C@@H](O)CC(=O)O)cc2Cl)cccc1-c1cccc(-c2cn(CC3CCNC3)nn2)c1C (stereo partly drawn) [Example 331],500 nM,232 nM,0.273 nM
"C[C@@](CO)(NCc1cc(Cl)c(OCc2cccc(-c3cccc(-c4ccc(OCCNCCO)cc4)c3Cl)c2Cl)nc1OCc1cncc(C#N)c1)C(=O)O [Example 340, (S)-2-(((5-chloro-2-((5-cyanopyridin-3-yl)methoxy)-6-((2,2′-dichloro-4″-(2-((2-hydroxyethyl)amino)ethoxy)-[1,1′:3′,1″-terphenyl]-3-yl)methoxy)pyridin-3-yl)methyl)amino)-3-hydroxy-2-methylpropanoic acid]",27.8 nM,217 nM,0.087 nM
"Cc1c(COc2cc(OCc3cncc(C#N)c3)c(CN[C@@](C)(CO)C(=O)O)cc2Cl)cccc1-c1cccc(-c2ccc(C3CCNC3)cc2)c1C (stereo partly drawn) [Example 342, (S)-2-((5-chloro-2-((5-cyanopyridin-3-yl)methoxy)-4-((2,2′-dimethyl-4″-((R)-pyrrolidin-3-yl)-[1,1′:3′,1″-terphenyl]-3-yl)methoxy)benzyl)amino)-3-hydroxy-2-methylpropanoic acid and(S)-2-((5-chloro-2-((5-cyanopyridin-3-yl)methoxy)-4-((2,2′-dimethyl-4″-((S)-pyrrolidin-3-yl)-[1,1′:3′,1″-terphenyl]-3-yl)methoxy)benzyl)amino)-3-hydroxy-2-methylpropanoic]",118 nM,447 nM,0.4 nM
"Cc1c(COc2cc(OCc3cncc(C#N)c3)c(CN[C@@](C)(CO)C(=O)O)cc2Cl)cccc1-c1cccc(-c2ccc3c(c2)CC(N)C3)c1C (stereo partly drawn) [Example 343, (S)-2-((4-((3′-((R)-2-amino-2,3-dihydro-1H-inden-5-yl)-2,2′-dimethyl-[1,1′-biphenyl]-3-yl)methoxy)-5-chloro-2-((5-cyanopyridin-3-yl)methoxy)benzyl)amino)-3-hydroxy-2-methylpropanoic acid and(S)-2-((4-((3′-((S)-2-amino-2,3-dihydro-1H-inden-5-yl)-2,2′-dimethyl-[1,1′-biphenyl]-3-yl)methoxy)-5-chloro-2-((5-cyanopyridin-3-yl)methoxy)benzyl)amino)-3-hydroxy-2-methylpropanoic acid]",81.1 nM,158 nM,0.218 nM
"Cc1c(COc2cc(OCc3cncc(C#N)c3)c(CN3CCCC[C@H]3C(=O)O)cc2Cl)cccc1-c1cccc(-c2ccc(OCCNCCO)cc2)c1C [Example 344, (S)-1-(5-chloro-2-((5-cyanopyridin-3-yl)methoxy)-4-((4″-(2-((2-hydroxyethyl)amino)ethoxy)-2,2′-dimethyl-[1,1′:3′,1″-terphenyl]-3-yl)methoxy)benzyl)piperidine-2-carboxylic acid]",55 nM,475 nM,0.064 nM
"Cc1c(COc2cc(OCc3cncc(C#N)c3)c(CN3CC[C@@H](C(=O)O)C3)cc2Cl)cccc1-c1cccc(-c2ccc(OCCNCCO)cc2)c1C [Example 345, (R)-1-(5-chloro-2-((5-cyanopyridin-3-yl)methoxy)-4-((4″-(2-((2-hydroxyethyl)amino)ethoxy)-2,2′-dimethyl-[1,1′:3′,1″-terphenyl]-3-yl)methoxy)benzyl)pyrrolidine-3-carboxylic acid]",229 nM,552 nM,0.09 nM
